Measured values from US20040166148A1, “Transdermal therapeutic delivery systems with a butenolide” (priority 2003, published 2004).

Test: Storage stability of drug solutions: N-oxide content by ion pair reversed phase HPLC
Format: physicochemical
Settings: solutions stored for 7 days at 40° C.; formulation employing levulinic acid

## CC(=O)CCC(=O)O [levulinic acid]
  N-oxide content of the formulation: below 0.06%
